In patent US7276603B2, “Benzofuranyl-and benzothienyl-piperazinyl quinolines and methods of their use” (Wyeth, priority 2003, dated 2007):

Key:
human 5-HT1A receptors = molecular target: T1, human 5-HT1A receptors (Homo sapiens, UniProt P08908); experiment: displacement of [3H] 8-OH-DPAT from the 5-HT1A serotonin receptor; format: binding; conditions: CHO cells stably transfected with human 5-HT1A receptors
T1 construct: expressed in transfected cells; host or cells: CHO cells
T1 sequence (P08908 1-422): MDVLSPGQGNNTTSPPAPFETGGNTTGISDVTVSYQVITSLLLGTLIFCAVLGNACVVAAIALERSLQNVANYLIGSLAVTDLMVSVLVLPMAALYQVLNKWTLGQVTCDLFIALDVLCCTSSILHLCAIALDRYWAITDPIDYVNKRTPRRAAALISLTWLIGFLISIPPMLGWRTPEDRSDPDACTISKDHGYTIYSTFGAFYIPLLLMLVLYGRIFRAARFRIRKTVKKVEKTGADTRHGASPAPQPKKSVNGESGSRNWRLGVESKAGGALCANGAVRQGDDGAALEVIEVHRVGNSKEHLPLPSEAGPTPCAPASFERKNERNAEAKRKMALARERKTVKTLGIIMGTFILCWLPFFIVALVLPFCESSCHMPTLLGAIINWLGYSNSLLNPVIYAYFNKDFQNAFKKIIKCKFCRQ

5-HT transporter = 5-HT transporter (Rattus norvegicus, UniProt P31652); experiment: Rat Brain 3H-Paroxetine Binding Assay (RB 5HT Transporter); conditions: rat frontal cortical membranes; 3H-paroxetine 0.1 nM, 60 min, 25° C.
Sequence of 5-HT transporter (P31652 whole entry): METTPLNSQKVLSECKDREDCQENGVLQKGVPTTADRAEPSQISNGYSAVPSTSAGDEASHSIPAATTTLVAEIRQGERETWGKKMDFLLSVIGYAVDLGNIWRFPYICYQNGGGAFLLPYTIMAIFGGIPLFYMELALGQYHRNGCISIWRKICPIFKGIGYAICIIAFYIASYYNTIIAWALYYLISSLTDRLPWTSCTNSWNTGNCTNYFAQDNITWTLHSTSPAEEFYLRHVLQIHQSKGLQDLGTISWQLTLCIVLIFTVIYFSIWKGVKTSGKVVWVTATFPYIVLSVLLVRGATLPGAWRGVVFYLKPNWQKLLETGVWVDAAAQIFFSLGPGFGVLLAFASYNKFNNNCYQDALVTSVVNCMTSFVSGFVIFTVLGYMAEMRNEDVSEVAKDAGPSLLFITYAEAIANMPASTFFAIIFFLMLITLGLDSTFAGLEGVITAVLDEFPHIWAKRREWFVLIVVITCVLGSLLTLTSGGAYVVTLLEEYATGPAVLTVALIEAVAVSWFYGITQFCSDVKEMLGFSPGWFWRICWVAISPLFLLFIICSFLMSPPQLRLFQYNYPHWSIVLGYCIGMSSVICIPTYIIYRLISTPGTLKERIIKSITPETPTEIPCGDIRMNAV
Text: Rat Brain ^3H-Paroxetine Binding Assay (RB 5HT Transporter):
This assay was used to determine a compound's affinity of the 5-HT transporter.
All reactions were terminated by the addition of ice cold Tris buffer followed by rapid filtration using a Tom Tech filtration device to separate bound from free ^3H-paroxetine.

SMILES	melting point [°C]	Ki (human 5-HT1A receptors) [nM]	Ki (5-HT transporter) [nM]
Fc1ccc2scc([C@H]3CC[C@@H](N4CCN(c5ccc(Cl)c6cccnc56)CC4)CC3)c2c1 [Compound 51, 5-chloro-8-{4-[4-cis(5-fluoro-1-benzothien-3-yl)cyclohexyl]piperazin-1-yl}quinoline]	192 to 197	4.14	133
Fc1ccc2scc([C@H]3CC[C@H](N4CCN(c5ccc(Cl)c6cccnc56)CC4)CC3)c2c1 [Compound 52, 5-chloro-8-{4-[4-trans(5-fluoro-1-benzothien-3-yl)cyclohexyl]piperazin-1-yl}quinoline]	195 to 197		48
COc1cccc2c1occ2[C@H]1CC[C@H](N2CCN(c3cccc4cccnc34)CC2)CC1 [Compound 62, 8-{4-[4-trans(7-methoxy-1-benzofuran-3-yl)cyclohexyl]-1-piperazinyl}quinoline]	195 to 197	0.26	46
COc1cccc2c1occ2[C@H]1CC[C@H](N2CCN(c3cc(F)cc4cccnc34)CC2)CC1 [Compound 60, 6-fluoro-8-{4-[4-trans(7-methoxy-1-benzofuran-3-yl)cyclohexyl]-1-piperazinyl}quinoline]	195 to 197	0.16	50
Fc1ccc(N2CCN([C@H]3CC[C@H](c4coc5ccccc54)CC3)CC2)c2ncccc12 [Compound 54, 8-{4-[4-trans(1-benzofuran-3-yl)cyclohexyl]-1-piperazinyl}-5-fluoroquinoline]	162 to 164	25.1	38
COc1ccc2occ([C@H]3CC[C@H](N4CCN(c5cc(F)cc6cccnc56)CC4)CC3)c2c1 [Compound 68, 6-fluoro-8-{4-[4-trans(5-methoxy-1-benzofuran-3-yl)cyclohexyl]piperazin-1-yl}quinoline]	152 to 155	0.22	121
Clc1cc(N2CCN([C@H]3CC[C@H](c4csc5ccccc54)CC3)CC2)c2ncccc2c1 [Compound 42, 8-{4-[4-trans(1-benzothien-3-yl)cyclohexyl]-1-piperazinyl}-6-chloroquinoline]	143 to 144	140	157
COc1cc(N2CCN([C@H]3CC[C@@H](c4cc5ccccc5s4)CC3)CC2)c2ncccc2c1 [Compound 70]	184 to 186	1550	47
Fc1cc(N2CCN([C@H]3CC[C@H](c4csc5ccccc54)CC3)CC2)c2ncccc2c1 [Compound 44, 8-{4-[4-trans(1-benzothien-3-yl)cyclohexyl]-1-piperazinyl}-6-fluoroquinoline]	195	130	380
Fc1ccc(N2CCN([C@H]3CC[C@@H](c4coc5ccccc54)CC3)CC2)c2ncccc12 [Compound 53, 8-{4-[4-cis(1-benzofuran-3-yl)cyclohexyl]-1-piperazinyl}-5-fluoroquinoline]	142 to 144	1.74	208
COc1cc(N2CCN([C@H]3CC[C@H](c4csc5ccccc54)CC3)CC2)c2ncccc2c1 [Compound 46, 8-{4-[4-trans (1-benzothien-3-yl)cyclohexyl]-1-piperazinyl}-6-methoxyquinoline]	166 to 168	126	21
Fc1cc(N2CCN([C@H]3CC[C@@H](c4csc5ccccc54)CC3)CC2)c2ncccc2c1 [Compound 43, 8-{4-[4-cis(1-benzothien-3-yl)cyclohexyl]-1-piperazinyl}-6-fluoroquinoline]	147 to 151	1.17	311
COc1cccc2c1occ2[C@H]1CC[C@@H](N2CCN(c3cccc4cccnc34)CC2)CC1 [Compound 61, 8-{4-[4-cis(7-methoxy-1-benzofuran-3-yl)cyclohexyl]-1-piperazinyl}quinoline]	66 to 67	41.4	27
COc1cc(N2CCN([C@H]3CC[C@@H](c4csc5ccccc54)CC3)CC2)c2ncccc2c1 [Compound 45, 8-{4-[4-cis(1-benzothien-3-yl)cyclohexyl]-1-piperazinyl}-6-methoxyquinoline]	148 to 150	1.73	259
COc1ccc2occ([C@H]3CC[C@@H](N4CCN(c5cc(F)cc6cccnc56)CC4)CC3)c2c1 [Compound 67, 6-fluoro-8-{4-[4-cis(5-methoxy-1-benzofuran-3-yl)cyclohexyl]piperazin-1-yl}quinoline]	153 to 160	14.4	146

More lines, now with the values ahead:

melting point [°C]	Ki (human 5-HT1A receptors) [nM]	Ki (5-HT transporter) [nM]	SMILES
91 to 93	16.3	106	Fc1cc(N2CCN(C3CCC(c4cc5ccccc5o4)CC3)CC2)c2ncccc2c1 (centres unmarked) [Compound 69, 8-[4-(4-benzofuran-2-yl-yclohexyl)-piperazin-1-yl]-6-fluoro-quinoline]
164 to 165	2.25	65	Clc1cc(N2CCN([C@H]3CC[C@@H](c4csc5ccccc54)CC3)CC2)c2ncccc2c1 [Compound 41, 8-{4-[4-cis-(1-benzothien-3-yl)cyclohexyl]-1-piperazinyl}-6-chloroquinoline]
143 to 144	0.28	155	Fc1cc(N2CCN([C@H]3CC[C@H](c4csc5ccc(F)cc54)CC3)CC2)c2ncccc2c1 [Compound 48, 6-fluoro-8-{4-[4-trans(5-fluoro-1-benzothien-3-yl)cyclohexyl]piperazin-1-yl}quinoline]
75 to 83	1.93	48	COc1cccc2c1occ2[C@H]1CC[C@@H](N2CCN(c3cc(F)cc4cccnc34)CC2)CC1 [Compound 59, 6-fluoro-8-{4-[4-cis(7-methoxy-1-benzofuran-3-yl)cyclohexyl]-1-piperazinyl}quinoline]
195 to 197	16.6	77	Fc1cc(N2CCN([C@H]3CC[C@H](c4coc5ccccc54)CC3)CC2)c2ncccc2c1 [Compound 56, 8-{4-[4-trans(1-benzofuran-3-yl)cyclohexyl]-1-piperazinyl}-6-fluoroquinoline]
72	2.69	2	COc1ccc2occ(CCN3CCN(c4cc(Cl)cc5cccnc45)CC3)c2c1 [Compound 22, 8-{4-[2-(5-methoxy-1-benzofuran-3-yl)ethyl]-1-piperazinyl}-6-chloro-quinoline]
78	2.83	7.25	COc1ccc2occ(CCN3CCN(c4cccc5cccnc45)CC3)c2c1 [Compound 21, 8-{4-[2-(5-methoxy-1-benzofuran-3-yl)ethyl]-1-piperazinyl}-quinoline]
143 to 146	0.4	163	COc1cccc2c1occ2[C@H]1CC[C@@H](N2CCN(c3ccc(F)c4cccnc34)CC2)CC1 [Compound 57, 5-fluoro-8-{4-[4-cis(7-methoxy-1-benzofuran-3-yl)cyclohexyl]-1-piperazinyl}quinoline]
